Reference: patent US20220098197A1, “SALTS OF HETEROCYCLIC COMPOUND AND USE THEREOF” (priority 2019, published 2022)

Legend:
RAW 264.7 macrophages [1] = assay: In vitro cytokines assay via ELISA, CSE- and PGD2-stimulated macrophages; type: cell-based, mouse; conditions: CT-NA 10 and 100 μM, p<0.01
Description: (§1) The cigarette smoke generated from 3R4F research grade cigarettes was passed through 50 ml PBS by a vacuum pump. Five cigarettes were used to make smoke that passed 50 ml PBS, and each cigarette was lit for 5 minutes. The control solution was prepared in the absence of cigarettes by using a similar method. After extraction, CSE was stored at −80° C.
(§2) RAW 264.7 macrophages were added to two 12-well plates. Thereafter, the medium of the 12-well plate was replaced with serum-free RPMI-1640 medium, and the macrophages were incubated for 10-12 hrs and then exposed to CT-NA (10 and 100 μM) for 1 hour. One hour later, one 12-well plate was treated with CSE (4%) and the other with PGD2 (10 μM) for 24 hrs. After the treatment, the supernatant of the treated cells was collected to measure the protein levels of TNF-α, IL-1β, IL-6, KC and IL-10 extracellularly secreted using ELISA kits according to the method of the instructions. Subsequently, RNA samples from each treated plate were extracted and reverse-transcripted into cDNA with HiScript5xQRTSuperMix, and then subjected to RT-PCR. RT-PCR was performed with the BioRad CFX96 Touch™ Real-Time PCR Detection System (BioRad, USA) using AceQ® qPCR SYBR Green Master Mix. And the threshold cycle numbers were obtained using BioRad CFX Manager Software. The primers used for RT-PCR reaction were shown in Table 1. β-actin was used as an internal control. The RT-PCR reactions were triplicated and the relative expression of target mRNA was normalized by the respective β-actin.

CS-induced ALI mice [2] = assay: CS-induced lung injury model: in vivo cytokine assay by ELISA in BALF; design: species or system Balb/c mice; conditions: p<0.01
Description: Model preparation: The mice were randomly divided into 5 groups (12 mice in each group), which were the control group (the mice were exposed to fresh air), the saline group (the mice were exposed to cigarette smoke), dexamethasone (Dex) group (1 mg/kg) (the mice were exposed to cigarette smoke), CT-NA 10 mg/kg group and CT-NA 30 mg/kg group (the mice were exposed to cigarette smoke). According to the grouping, the mice were intragastrically administered saline, Dex and CT-NA, respectively. […] 24 hrs after the last exposure to the cigarette smoke, the partial pressure of oxygen (PO2) of all mice was measured by the Moor VMS-OXY™ measuring instrument, which was used to measure the oxygenated/deoxygenated hemoglobin concentration and oxygen saturation (percentage) in the microcirculation at the wavelength range of 500 to 650 nm. […] The expression levels of pro-inflammatory cytokines (TNF-α, IL-1β, IL-6), chemokines (KC) and anti-inflammatory cytokines (IL-10) in the BALF supernatant were determined using respective ELISA determination kits according to the instruction manual. After the optical density at 450 nm was measured, the expression of cytokines was calculated via the standard curve.

RAW 264.7 macrophages [3] = assay: In vitro cytokines mRNA by RT-PCR, CSE- and PGD2-stimulated macrophages; type: cell-based, mouse; conditions: CT-NA 10 and 100 μM, p<0.01
Description: as §1, §2

LPS-induced ALI mice = assay: LPS-induced ALI model: albumin in BALF; type: in vivo, Balb/c mice; conditions: CT-NA 10 mg/kg (P<0.05) and 30 mg/kg (P<0.01), Dex 1 mg/kg (P<0.01); 24 hrs after LPS
Description: Evans Blue was a dye that could quickly bind to albumin and was remains restricted within blood vessels because the endothelium was impermeable to albumin under normal physiological conditions. Pulmonary microvascular permeability was assessed by measuring the extravasation of Evans blue dye in the lungs. The method was briefly described as follows. The mice were randomly divided into control group (12 mice) and LPS group (48 mice). The LPS group (48 mice) was further divided into four subgroups (each subgroup contains 12 mice). To measure pulmonary microvascular permeability, the unanaesthetized mice of LPS group received intragastric instillation of NS, CT-NA at 10 mg/kg or 30 mg/kg, or Dex at 1 mg/kg respectively. One hour later, the anaesthetized mice were intratracheally instilled with NS (control group) and LPS (all LPS subgroups) at 10 μl/10 g of body weight. […] And then the absorbance of the Evans blue dye extracted in the supernatant was measured against formamide blank at 620 nm via standard curve method, and expressed as microgram of dye per 100 mg of wet lung weight. In addition, the concentration of albumin in BALF was measured at 628 nm using a spectrophotometer and an albumin measurement kit. The albumin concentration ratio assessed from BALF represented not only the albumin level but also the permeability of the pulmonary microvascular.

CS-induced ALI mice [4] = assay: CS-induced lung injury model: lung MPO assay; type: in vivo, Balb/c mice; conditions: CS exposure; CT-NA 10 and 30 mg/kg, Dex 1 mg/kg; p<0.01
Description: Model preparation: The mice were randomly divided into 5 groups (12 mice in each group), which were the control group (the mice were exposed to fresh air), the saline group (the mice were exposed to cigarette smoke), dexamethasone (Dex) group (1 mg/kg) (the mice were exposed to cigarette smoke), CT-NA 10 mg/kg group and CT-NA 30 mg/kg group (the mice were exposed to cigarette smoke). According to the grouping, the mice were intragastrically administered saline, Dex and CT-NA, respectively. Thereafter, the mice were exposed to fresh air or cigarette smoke generated from 3R4F research-grade cigarettes (containing about 600 mg TPM/m^3 and 29.9 mg nicotine/m^3) in a cuboid plastic box (65×50x×45 cm). Ten cigarettes were burned every day for seven days. After one cigarette was burned, the next cigarette was ignited. […] The lung tissue was collected for determination of lung weight coefficient, histological examination and MPO activity.
In order to evaluate MPO activity, 50 mg strips of left lung tissue were washed, and then homogenized with normal saline. MPO activity was determined by measuring the changes in absorbance at 460 nm according to the detection standard by using MPO assay kit.

CN([C@@H]1CCc2c(CC(=O)[O-])c3cccnc3n2C1)S(=O)(=O)c1ccc(F)cc1.[Na+] [Sodium salt hydrate]
protein levels of IL-1β, IL-6, TNF-α and KC, CSE-stimulated (RAW 264.7 macrophages [1]; 1 h pretreatment, CSE (4%) 24 hrs): inhibited
protein levels of IL-1β, IL-6, TNF-α and KC, PGD2-stimulated (RAW 264.7 macrophages [1]; 1 h pretreatment, PGD2 (10 μM) 24 hrs): inhibited
CSE-induced inhibition of IL-10, protein (RAW 264.7 macrophages [1]; CSE (4%), dose-dependent): reversed
PGD2-induced inhibition of IL-10, protein (RAW 264.7 macrophages [1]; PGD2 (10 μM), dose-dependent): reversed
CS-induced overexpression of TNF-α, IL-1β, IL-6 and KC in BALF (CS-induced ALI mice [2]; CT-NA 10 and 30 mg/kg intragastric): effectively reduced
CS-induced inhibition of IL-10 in BALF (CS-induced ALI mice [2]; CT-NA treatment): reversed
mRNA levels of IL-1β, IL-6, TNF-α and KC, CSE-stimulated (RAW 264.7 macrophages [3]; CSE (4%) 24 hrs): inhibited
CSE-induced inhibition of IL-10, mRNA (RAW 264.7 macrophages [3]; CSE (4%), dose-dependent): reversed
mRNA levels of IL-1β, IL-6, TNF-α and KC, PGD2-stimulated (RAW 264.7 macrophages [3]; PGD2 (10 μM) 24 hrs): inhibited
PGD2-induced inhibition of IL-10, mRNA (RAW 264.7 macrophages [3]; PGD2 (10 μM), dose-dependent): reversed
albumin content in BALF (LPS-induced ALI mice): considerably reduced
MPO activity of lung tissues (CS-induced ALI mice [4]): attenuated
